Experimental data as given in patent US10294202B2, “Pyrrolidinones as herbicides” (FMC Corporation, priority 2013, dated 2019).

Key:
giant foxtail = experiment: Test A pre-/postemergence herbicide test; assay type: in vivo, Setaria faberii
Outline: (§1)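 Scoring was visual, relative to untreated controls, on a 0–100 scale after about 10 greenhouse days. Preemergence treatment used a directed soil spray over seeded loam/sand; postemergence treatment targeted one- to two-leaf plants of 2–10 cm.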

sedge, umbrella = experiment: Test B flooded paddy test; assay type: in vivo, Cyperus difformis; settings: 500 g ai/ha, Flood; scale of 0 to 100 where 0 is no effect and 100 is complete control
Outline: (§2)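 2-leaf plants; flood 3 cm over soil; compound into paddy water; depth held. Greenhouse 13–15 d. Visual rating vs controls, 0 (no effect) to 100 (complete control); dash = not tested.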

ryegrass, Italian = experiment: Test A pre-/postemergence herbicide test; assay type: in vivo, Lolium multiflorum
Outline: as §1

pigweed = experiment: Test A pre-/postemergence herbicide test; assay type: in vivo, Amaranthus retroflexus
Outline: as §1

barnyardgrass [1] = experiment: Test A pre-/postemergence herbicide test; assay type: in vivo, Echinochloa crus-galli
Outline: as §1

blackgrass = experiment: Test A postemergence herbicide test; assay type: in vivo, Alopecurus myosuroides
Outline: (§3)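 Young potted plants in a loam–sand mix, one- to two-leaf stage and 2–10 cm tall, receive the test chemical postemergence and stay in a greenhouse for approximately 10 days. Injury is then judged by eye against untreated plants, scored 0 (none) to 100 (complete control).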

wheat = experiment: Test A pre-/postemergence herbicide test; assay type: in vivo, Triticum aestivum; settings: Postemergence
Outline: as §1

corn = experiment: Test A pre-/postemergence herbicide test; assay type: in vivo, Zea mays; settings: Postemergence
Outline: as §1

rice = experiment: Test B flooded paddy test; assay type: in vivo, Oryza sativa; settings: 500 g ai/ha, Flood; scale of 0 to 100 where 0 is no effect and 100 is complete control
Outline: as §2

ragweed = experiment: Test A pre-/postemergence herbicide test; assay type: in vivo, Ambrosia elatior
Outline: as §1

barnyardgrass [2] = experiment: Test B flooded paddy test; assay type: in vivo, Echinochloa crus-galli; settings: 500 g ai/ha, Flood; scale of 0 to 100 where 0 is no effect and 100 is complete control
Outline: as §2

kochia = experiment: Test A pre-/postemergence herbicide test; assay type: in vivo, Kochia scoparia
Outline: as §1

ducksalad = experiment: Test B flooded paddy test; assay type: in vivo, Heteranthera limosa; settings: 500 g ai/ha, Flood; scale of 0 to 100 where 0 is no effect and 100 is complete control
Outline: as §2

galium = experiment: Test A postemergence herbicide test; assay type: in vivo, Galium aparine
Outline: as §3

[3] = Postemergence, 125 g ai/ha, visual rating on 0 to 100 scale (0 no effect, 100 complete control), approx. 10 days
[4] = Postemergence, 500 g ai/ha, 0 to 100 scale (0 no effect, 100 complete control)
[5] = Preemergence, 125 g ai/ha, 0 to 100 scale where 0 is no effect and 100 is complete control
[6] = Preemergence, 500 g ai/ha, visual rating on 0 to 100 scale (0 no effect, 100 complete control)
[7] = 125 g ai/ha, visual rating on 0 to 100 scale (0 no effect, 100 complete control), approx. 10 days
[8] = 500 g ai/ha, 0 to 100 scale (0 no effect, 100 complete control)
[9] = 125 g ai/ha, visual rating, 0 to 100 scale, 0 no effect, 100 complete control, approximately 10 days, preemergence
[10] = Postemergence, 125 g ai/ha, 0 to 100 scale, 0 no effect, 100 complete control
[11] = preemergence, 500 g ai/ha, 0 to 100 scale
[12] = preemergence, 500 g ai/ha, 0 to 100 scale, 0 is no effect and 100 is complete control
[13] = preemergence, 500 g ai/ha, 0 to 100 scale (0 no effect, 100 complete control)
[14] = 125 g ai/ha, 0 to 100 scale, 0 no effect, 100 complete control
[15] = Postemergence, 125 g ai/ha, 0 to 100 scale, 0 is no effect, 100 is complete control
[16] = 125 g ai/ha, 0 to 100 scale, 0 is no effect, 100 is complete control

O=C1NCC(c2cccc(Oc3ccccc3)c2)C1C(=O)Nc1ccccc1Cl (stereo not drawn) [Compound 334]
50: Foxtail, Giant plant response rating (giant foxtail; [6])
10: Plant response rating, Foxtail, Giant (giant foxtail; [4])
40: Plant response rating, Ducksalad (ducksalad)
30: Plant response rating, Barnyardgrass (barnyardgrass [2])
0: Plant response rating, Foxtail, Giant (giant foxtail; [3]) | Plant response rating, Foxtail, Giant (giant foxtail; [5]) | Plant response rating, Sedge, Umbrella (sedge, umbrella) | Plant response rating, Ryegrass, Italian (ryegrass, Italian; [3]) | Plant response rating, Ryegrass, Italian (ryegrass, Italian; [4]) | Plant response rating, Ryegrass, Italian (ryegrass, Italian; [5]) | Ryegrass, Italian plant response rating (ryegrass, Italian; [6]) | Plant response rating, Pigweed (pigweed; [3]) | Plant response rating, Pigweed (pigweed; [4]) | Plant response rating, Pigweed (pigweed; [5]) | Pigweed plant response rating (pigweed; [6]) | Plant response rating, Barnyardgrass (barnyardgrass [1]; [3]) | Plant response rating, Barnyardgrass (barnyardgrass [1]; [4]) | Plant response rating, Barnyardgrass (barnyardgrass [1]; [5]) | Barnyardgrass plant response rating (barnyardgrass [1]; [6]) | Plant response rating, Blackgrass (blackgrass; [7]) | Plant response rating, Blackgrass (blackgrass; [8]) | Plant response rating, Wheat (wheat; [7]) | Plant response rating, Wheat (wheat; [8]) | Plant response rating, Corn (corn; [7]) | Plant response rating, Corn (corn; [8]) | Plant response rating, Rice (rice) | Plant response rating, Ragweed (ragweed; [3]) | Plant response rating, Ragweed (ragweed; [4]) | Plant response rating, Ragweed (ragweed; [5]) | Ragweed plant response rating (ragweed; [6]) | Plant response rating, Kochia (kochia; [3]) | Plant response rating, Kochia (kochia; [4]) | Plant response rating, Kochia (kochia; [5]) | Kochia plant response rating (kochia; [6]) | Plant response rating, Galium (galium; [7]) | Plant response rating, Galium (galium; [8])

Cc1ccc(C2CNC(=O)C2C(=O)Nc2ccccc2Cl)cc1 (racemic) [Compound 152]
100: Plant response rating, Ducksalad (ducksalad)
30: Plant response rating, Ryegrass, Italian (ryegrass, Italian; [12]) | Plant response rating, Kochia (kochia; [9])
50: Plant response rating, Foxtail, Giant (giant foxtail; [10]) | Ryegrass, Italian plant response rating (0 to 100 scale, 0 is no effect, 100 is complete control) (ryegrass, Italian; Postemergence, 500 g ai/ha) | Blackgrass plant response rating (0 to 100 scale, 0 is no effect, 100 is complete control) (blackgrass; 500 g ai/ha) | Plant response rating, Ragweed (ragweed; [9]) | Ragweed plant response rating (0 to 100 scale, 0 is no effect, 100 is complete control) (ragweed; Postemergence, 500 g ai/ha) | Plant response rating, Kochia (kochia; [10])
70: Plant response rating, Foxtail, Giant (giant foxtail; [9]) | Plant response rating, Barnyardgrass (barnyardgrass [1]; [10]) | Plant response rating, Ragweed (ragweed; [12]) | Galium plant response rating (0 to 100 scale, 0 is no effect, 100 is complete control) (galium; 500 g ai/ha)
40: Plant response rating, Ragweed (ragweed; [10])
60: Foxtail, Giant plant response rating (0 to 100 scale, 0 is no effect, 100 is complete control) (giant foxtail; Postemergence, 500 g ai/ha) | Plant response rating, Barnyardgrass (barnyardgrass [2]) | Kochia plant response rating (0 to 100 scale, 0 is no effect, 100 is complete control) (kochia; Postemergence, 500 g ai/ha) | Plant response rating, Kochia (kochia; [12]) | Plant response rating, Galium (galium; [14])
90: Plant response rating, Foxtail, Giant (giant foxtail; [11]) | Plant response rating, Barnyardgrass (barnyardgrass [1]; [9]) | Plant response rating, Barnyardgrass (barnyardgrass [1]; [13])
80: Barnyardgrass plant response rating (0 to 100 scale, 0 is no effect, 100 is complete control) (barnyardgrass [1]; Postemergence, 500 g ai/ha)
20: Pigweed plant response rating (0 to 100 scale, 0 is no effect, 100 is complete control) (pigweed; Postemergence, 500 g ai/ha)
15: Plant response rating, Rice (rice)
0: Plant response rating, Sedge, Umbrella (sedge, umbrella) | Plant response rating, Ryegrass, Italian (ryegrass, Italian; [9]) | Plant response rating, Pigweed (pigweed; [9]) | Plant response rating, Pigweed (pigweed; [10]) | Plant response rating, Blackgrass (blackgrass; [14]) | Plant response rating, Wheat (wheat; [14]) | Wheat plant response rating (0 to 100 scale, 0 is no effect, 100 is complete control) (wheat; 500 g ai/ha) | Plant response rating, Corn (corn; [14]) | Corn plant response rating (0 to 100 scale, 0 is no effect, 100 is complete control) (corn; 500 g ai/ha)
10: Plant response rating, Ryegrass, Italian (ryegrass, Italian; [10]) | Plant response rating, Pigweed (pigweed; [12])

O=C1NCC(c2cccc(C3CC3)c2)C1C(=O)Nc1ccccc1F (racemic) [Compound 166]
20: Plant response rating, Ryegrass, Italian (ryegrass, Italian; [9]) | Plant response rating, Wheat (wheat; [16]) | Plant response rating, Galium (galium; [16])
80: Plant response rating, Foxtail, Giant (giant foxtail; [15]) | Plant response rating, Barnyardgrass (barnyardgrass [1]; [9]) | Plant response rating, Barnyardgrass (barnyardgrass [1]; [15]) | Barnyardgrass plant response rating (0 to 100 scale, 0 is no effect, 100 is complete control) (barnyardgrass [1]; Postemergence, 500 g ai/ha) | Corn plant response rating (0 to 100 scale, 0 is no effect, 100 is complete control) (corn; 500 g ai/ha)
90: Plant response rating, Foxtail, Giant (giant foxtail; [9]) | Foxtail, Giant plant response rating (0 to 100 scale, 0 is no effect, 100 is complete control) (giant foxtail; Postemergence, 500 g ai/ha) | Plant response rating, Foxtail, Giant (giant foxtail; [11]) | Plant response rating, Barnyardgrass (barnyardgrass [1]; [13])
75: Plant response rating, Barnyardgrass (barnyardgrass [2])
70: Kochia plant response rating (0 to 100 scale, 0 is no effect, 100 is complete control) (kochia; Postemergence, 500 g ai/ha) | Plant response rating, Kochia (kochia; [12])
50: Ryegrass, Italian plant response rating (0 to 100 scale, 0 is no effect, 100 is complete control) (ryegrass, Italian; Postemergence, 500 g ai/ha) | Pigweed plant response rating (0 to 100 scale, 0 is no effect, 100 is complete control) (pigweed; Postemergence, 500 g ai/ha) | Plant response rating, Blackgrass (blackgrass; [16]) | Wheat plant response rating (0 to 100 scale, 0 is no effect, 100 is complete control) (wheat; 500 g ai/ha) | Plant response rating, Ragweed (ragweed; [12])
60: Plant response rating, Ryegrass, Italian (ryegrass, Italian; [12]) | Blackgrass plant response rating (0 to 100 scale, 0 is no effect, 100 is complete control) (blackgrass; 500 g ai/ha) | Galium plant response rating (0 to 100 scale, 0 is no effect, 100 is complete control) (galium; 500 g ai/ha)
0: Plant response rating, Sedge, Umbrella (sedge, umbrella) | Plant response rating, Ryegrass, Italian (ryegrass, Italian; [15]) | Plant response rating, Pigweed (pigweed; [9]) | Plant response rating, Rice (rice) | Plant response rating, Ragweed (ragweed; [9]) | Plant response rating, Ragweed (ragweed; [15]) | Ragweed plant response rating (0 to 100 scale, 0 is no effect, 100 is complete control) (ragweed; Postemergence, 500 g ai/ha)
10: Plant response rating, Pigweed (pigweed; [12])
100: Plant response rating, Ducksalad (ducksalad)
30: Plant response rating, Corn (corn; [16]) | Plant response rating, Kochia (kochia; [9]) | Plant response rating, Kochia (kochia; [15])
40: Plant response rating, Pigweed (pigweed; [15])

O=C1NCC(c2cc3ccccc3o2)C1C(=O)Nc1ccccc1F (racemic) [Compound 281]
0: Plant response rating, Foxtail, Giant (giant foxtail; [15]) | Plant response rating, Foxtail, Giant (giant foxtail; [4]) | Plant response rating, Sedge, Umbrella (sedge, umbrella) | Plant response rating, Ryegrass, Italian (ryegrass, Italian; [3]) | Plant response rating, Ryegrass, Italian (ryegrass, Italian; [4]) | Plant response rating, Ryegrass, Italian (ryegrass, Italian; [5]) | Plant response rating, Ryegrass, Italian (ryegrass, Italian; [12]) | Plant response rating, Pigweed (pigweed; [3]) | Plant response rating, Pigweed (pigweed; [4]) | Plant response rating, Pigweed (pigweed; [5]) | Plant response rating, Pigweed (pigweed; [12]) | Plant response rating, Blackgrass (blackgrass; [16]) | Plant response rating, Blackgrass (blackgrass; [8]) | Plant response rating, Wheat (wheat; [7]) | Plant response rating, Wheat (wheat; [8]) | Plant response rating, Corn (corn; [16]) | Plant response rating, Corn (corn; [8]) | Plant response rating, Rice (rice) | Plant response rating, Ragweed (ragweed; [3]) | Plant response rating, Ragweed (ragweed; [4]) | Plant response rating, Ragweed (ragweed; [5]) | Plant response rating, Ragweed (ragweed; [12]) | Plant response rating, Kochia (kochia; [15]) | Plant response rating, Kochia (kochia; [4]) | Plant response rating, Kochia (kochia; [5]) | Plant response rating, Kochia (kochia; [12]) | Plant response rating, Galium (galium; [16]) | Plant response rating, Galium (galium; [8])
50: Plant response rating, Barnyardgrass (barnyardgrass [1]; [5])
10: Plant response rating, Foxtail, Giant (giant foxtail; [5])
75: Plant response rating, Ducksalad (ducksalad)
20: Plant response rating, Barnyardgrass (barnyardgrass [2])
70: Plant response rating, Foxtail, Giant (giant foxtail; [12]) | Plant response rating, Barnyardgrass (barnyardgrass [1]; [4]) | Plant response rating, Barnyardgrass (barnyardgrass [1]; [12])
40: Plant response rating, Barnyardgrass (barnyardgrass [1]; [15])
